The values below come from doi:10.1101/2024.03.18.584035v1 (biorxiv, 2024).

The target of this assay is T1, olTRPM2 (Oryzias latipes, UniProt H2MNZ1).
T1 sequence (H2MNZ1 1-1431): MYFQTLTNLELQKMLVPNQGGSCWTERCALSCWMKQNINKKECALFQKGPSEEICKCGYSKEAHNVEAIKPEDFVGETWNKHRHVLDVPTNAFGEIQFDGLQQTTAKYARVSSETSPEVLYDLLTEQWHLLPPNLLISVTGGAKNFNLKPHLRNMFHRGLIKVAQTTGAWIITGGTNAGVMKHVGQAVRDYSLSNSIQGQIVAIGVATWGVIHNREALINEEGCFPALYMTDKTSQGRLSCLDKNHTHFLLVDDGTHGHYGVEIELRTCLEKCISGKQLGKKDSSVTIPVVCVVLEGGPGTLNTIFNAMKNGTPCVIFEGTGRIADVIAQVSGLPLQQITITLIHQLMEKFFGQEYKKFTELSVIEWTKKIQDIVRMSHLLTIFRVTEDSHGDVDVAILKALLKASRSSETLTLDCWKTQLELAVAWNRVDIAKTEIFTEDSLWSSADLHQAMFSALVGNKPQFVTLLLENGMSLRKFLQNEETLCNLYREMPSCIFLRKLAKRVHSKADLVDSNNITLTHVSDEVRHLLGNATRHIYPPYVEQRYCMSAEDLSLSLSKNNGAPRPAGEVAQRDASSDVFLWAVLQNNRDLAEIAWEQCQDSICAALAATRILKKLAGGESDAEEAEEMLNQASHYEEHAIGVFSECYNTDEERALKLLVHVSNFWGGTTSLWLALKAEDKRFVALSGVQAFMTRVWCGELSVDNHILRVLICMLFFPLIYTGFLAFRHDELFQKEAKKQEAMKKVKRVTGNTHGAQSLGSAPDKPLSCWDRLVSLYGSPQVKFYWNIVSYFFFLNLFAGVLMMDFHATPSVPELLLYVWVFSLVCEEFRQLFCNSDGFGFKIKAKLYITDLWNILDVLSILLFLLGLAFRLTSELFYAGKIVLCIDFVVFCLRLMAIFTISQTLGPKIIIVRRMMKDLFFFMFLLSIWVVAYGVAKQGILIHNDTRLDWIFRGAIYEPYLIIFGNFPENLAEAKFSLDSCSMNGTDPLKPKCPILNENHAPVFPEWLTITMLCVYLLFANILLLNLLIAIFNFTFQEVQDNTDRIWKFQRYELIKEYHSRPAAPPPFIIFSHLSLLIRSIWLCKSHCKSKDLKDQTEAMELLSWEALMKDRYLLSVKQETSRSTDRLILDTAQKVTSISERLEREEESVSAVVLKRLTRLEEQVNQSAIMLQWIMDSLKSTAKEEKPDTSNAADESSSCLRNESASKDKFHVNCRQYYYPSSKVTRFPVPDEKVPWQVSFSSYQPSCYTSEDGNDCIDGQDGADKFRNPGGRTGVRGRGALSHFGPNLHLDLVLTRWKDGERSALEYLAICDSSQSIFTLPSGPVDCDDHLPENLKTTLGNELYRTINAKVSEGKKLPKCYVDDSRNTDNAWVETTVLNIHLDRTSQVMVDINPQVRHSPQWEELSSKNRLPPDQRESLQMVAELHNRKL
Nature of the assay: whole-cell patch clamp, HEK293T. It counts as cell-based. The settings on record: intracellular ADPR; room temperature; pH 7.4; -80 mV; agonist. On the technique in general: In patch-clamp work, channel activity is measured electrically.

For orientation: EC50 means the concentration giving half of the maximal effect. A low value points to a more potent agent. On to `Nc1ncnc2c1ncn2[C@@H]1O[C@H](COP(=O)(O)OP(=O)(O)OC[C@H]2OC(O)[C@H](O)[C@@H]2O)[C@@H](O)[C@H]1O` (stereo partly shown) [ADPR, adenosine diphosphate ribose], for which the EC50 stood at 1100 ± 800 nM.
